From PubChem BioAssay AID179 (DTP/NCI, 2004) come the findings set out here.

The assay concerns CEM cells HIV-1 protection, formazan growth assay. Nature of the assay: NCI AIDS Antiviral Assay. Conditions: for IC50: measured here: growth of uninfected CEM cells. The gist of the method:
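Five concentrations of each compound were applied to infected and uninfected human CEM cells. Protection from HIV-1 was judged from growth measured with a soluble formazan assay.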

Activity calls are given as the source filed them.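 The calls were made as follows: active = compounds giving half or more protection of infected cells from virus-caused growth loss, again on retest; inactive = the rest.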 Where a SMILES comes first, the peptide text is derived from it. Bounds are passed on as bounds.

In the case of `COc1cccc(C=C(C#N)C#N)c1`, the EC50 is above 708 µM and the IC50 was 115 µM.

As to `CC(C)c1ccc2c(c1)CCC1C(C)(C)[C@@H](O)CC[C@]21C` (some centres undefined), the EC50 was above 66.1 µM and the concentration for half-maximal inhibition (IC50) came out at 37.2 µM. The like results for `c1ccc(P(CC[As](c2ccccc2)c2ccccc2)CC[As](c2ccccc2)c2ccccc2)cc1` were, in that order, above 20.9 µM and 2.14 µM.

For `CCOC(=O)C(C[Si](C)(C)C)P(=O)(OCC)OCC` (centres undefined), the EC50 was above 575 µM and the half-inhibitory concentration (IC50) is 537 µM.

Turning to `O=C(O)c1cc2ccccc2c(N=Nc2ccc(S(=O)(=O)Nc3nccs3)cc2)c1O`, the EC50 was above 200 µM and the concentration for half-maximal inhibition (IC50) was determined as 155 µM. Turning to `CC(C)C1CC(CO)(CNc2nc(N)nc(Cl)c2C=O)C1` (centres undefined), the EC50 is above 200 µM and the half-inhibitory concentration (IC50) stood at 1.78 µM.

As for `O=C1c2ccccc2C(=O)N1/N=C\c1ccc(Br)cc1`, the EC50 is above 21.9 µM and the IC50 is above 21.9 µM.

As to `CN(C)CCC(/C=C/c1ccccc1)=N\Nc1ccc(Cl)c(Cl)c1`, the outcome was inactive. With `OC12c3ccccc3C3CCC4(OCCO4)C3C1c1ccccc12` (centres undefined), the EC50 is above 200 µM and the concentration for half-maximal inhibition (IC50) turned out to be 141 µM. Regarding `COc1cc(CNc2cnc3ccc(N)cc3n2)cc(OC)c1OC`, the EC50 is above 525 µM and the 50% inhibitory concentration (IC50) stood at 35.5 µM. Turning to `CN(/N=C(\C(=O)O)c1ccccc1)C1=NCCN1`, the EC50 was above 200 µM and the IC50 was above 200 µM.

Take `NC(P(=O)(O)O)P(=O)(O)O`: the EC50 was above 200 µM and the concentration for half-maximal inhibition (IC50) is above 200 µM. `COc1cc(/C=C(\C#N)C(=O)c2ccccc2)ccc1O`: the EC50 was above 646 µM and the 50% inhibitory concentration (IC50) worked out at 490 µM.

`CCOC1(OCC)C2C=CC1C(COS(=O)(=O)c1ccc(C)cc1)C2COS(=O)(=O)c1ccc(C)cc1` (centres undefined): the EC50 was above 200 µM and the half-inhibitory concentration (IC50) came out at 14.1 µM.

Take `O=C1CSC(c2c[nH]c3ccccc23)N1c1ccc(Cl)cc1Cl` (centres undefined): the EC50 was above 257 µM and the IC50 was 56.2 µM. In the case of `Fc1ccc2nncc(SCc3ccccc3Cl)c2c1`, the EC50 was above 87.1 µM and the IC50 amounted to 35.5 µM. `COc1cccc(C[C@H]2C(=O)OC[C@@H]2Cc2ccc(OC)c(OC)c2)c1`: the EC50 is above 200 µM and the IC50 turned out to be 57.5 µM. On to `CC(C)N=C1CCCC1C(=S)SSC(=S)C1CCCC1=NC(C)C` (centres undefined), for which the EC50 was above 200 µM and the concentration for half-maximal inhibition (IC50) came to 10.7 µM.

For `Cc1ccc(/C=N/Nc2ccccn2)s1`, the EC50 was above 200 µM and the IC50 is above 200 µM. Turning to `c1ccc(C2=NOC3COc4ccccc4OCC23)cc1` (centres undefined), the EC50 was above 93.3 µM and the IC50 is above 93.3 µM. For the compound `COc1cc(COC(=O)N2CSCC2C(=O)O)c([N+](=O)[O-])cc1OC` (centres undefined), the EC50 was above 676 µM and the IC50 is above 676 µM.

Turning to `CC1SC(=S)N(c2ccc(Cl)cc2)C1=O` (centres undefined), the EC50 was above 138 µM and the 50% inhibitory concentration (IC50) turned out to be 67.6 µM.

For the compound `CCc1cccc(C(C)C)c1NC(=O)C(=O)Nn1c(=S)[nH]c2ccccc2c1=O`, the EC50 is above 123 µM and the IC50 is above 123 µM. With `O=[N+]([O-])C1(C[Se]c2cccc(C(F)(F)F)c2)CCCCC1`, the outcome was inactive. For the compound `Cc1[nH]c(N)c(C#N)c1Cc1ccccc1`, the EC50 is above 200 µM and the 50% inhibitory concentration (IC50) is above 200 µM.

As to `Cc1cccc[c]1[Sb](=[O])([OH])[OH]`, the outcome was active. Consider `CCOC(=O)C(C)S(=O)(=O)O` (centres undefined), for which the EC50 is above 200 µM and the 50% inhibitory concentration (IC50) is above 200 µM. For `CCOC(=O)C(C)(C)/C=C\C(Cl)=C(Cl)Cl`, the EC50 is above 200 µM and the 50% inhibitory concentration (IC50) amounted to 117 µM. Regarding `COc1cc(C(=O)O)c(-c2cc3c(cc2C=O)OCO3)c(OC)c1OC`, the EC50 was above 692 µM and the IC50 was above 692 µM. `O=C1NCC2(CCN(CCCC3(c4ccc(F)cc4)OCCO3)CC2)N1c1ccccc1`: the EC50 was above 200 µM and the IC50 was above 200 µM. On to `COc1ccc2c(n1)Sc1nc3ccccc3nc1N2`, for which the EC50 is above 200 µM and the IC50 amounted to 24.5 µM. Turning to `O=S1(=O)c2ccccc2N(c2ccccc2)c2nnnn21`, the EC50 was above 79.4 µM and the IC50 worked out at 33.1 µM. For the compound `COc1cc(N(CCC#N)CCC#N)ccc1/C(N=Nc1ccccc1)=N/NC(=O)c1cc(Br)ccc1O`, the EC50 is above 100 µM and the IC50 turned out to be 17.8 µM. In the case of `CC(=O)OCC1OC(n2c(C)c(C)cc(C#N)c2=S)C(OC(C)=O)C(OC(C)=O)C1OC(C)=O` (centres undefined), the EC50 was above 200 µM and the IC50 was above 200 µM. As for `O=P(O)(CN(C1CCCCC1)C1CCCCC1)CN(C1CCCCC1)C1CCCCC1`, the EC50 is 178 µM and the IC50 was above 200 µM.

As for `CCN(CC)CCNc1cccc2oc3ccc(OS(=O)(=O)c4ccc(C)cc4)cc3c(=O)c12`, the EC50 is above 15.1 µM and the IC50 was 6.31 µM. For `CCC(C)C(NC(=O)C1CCCN1C(=O)C(Cc1ccc(O)cc1)NC(=O)C(CC(N)=O)NC(=O)C(CCC(N)=O)NC(=O)C(CO)NC(=O)C(N)C(C)C)C(=O)NC(CC(C)C)C(=O)NC(CCC(N)=O)C(N)=O` (centres undefined) (H-VSQNYPILQ-NH2; configuration not given here), in that order: above 58.9 µM and above 58.9 µM. For `O=C(N=Nc1ccccc1Cl)NNc1ccccc1Cl`, in that order: above 200 µM and 31.6 µM.

On to `N/N=C(\c1ccccc1)c1ccc([N+](=O)[O-])cc1`, for which the EC50 is above 135 µM and the IC50 came to 97.7 µM.

With `O=C1C[C@H]2[C@H](c3ccc(Br)cc3)[C@H]3C(=O)c4ccccc4NC(=O)[C@@H]3[C@@]2(O)c2ccccc2N1`, the EC50 is above 200 µM and the concentration for half-maximal inhibition (IC50) was 77.6 µM. The like results for `CC(O[Si](C)(C)C(C)(C)C)[C@H](NC(=O)OCC(Cl)(Cl)Cl)C(=O)O` (some centres undefined) were, in that order, above 617 µM and above 100 µM. Turning to `CC1(C)OC(=O)C(=Cc2ccc(F)cc2)C(=O)O1`, the EC50 is above 525 µM and the concentration for half-maximal inhibition (IC50) is 170 µM. As for `C[CH2][Ge]1([CH2]C)[CH2]CC2(CCN(CCCN(C)C)C2)C[CH2]1`, the EC50 was above 251 µM and the IC50 turned out to be 1.38 µM. Consider `O=c1cc2n(c(=O)[nH]1)C1OC(C(O)C1O)[C@@H]2CCO` (some centres undefined), for which the outcome was inactive.

Consider `CCCCOC(=O)C1CC2OC2CC1C(=O)OCCCCOC(=O)C1CC2OC2CC1C(=O)OCCCC` (centres undefined), for which the EC50 is above 200 µM and the IC50 amounted to 21.9 µM.

Regarding `CCOC(=O)CN(c1sc(C)c(-c2ccccc2)c1C(=O)OCC)S(=O)(=O)c1ccc(C)cc1`, the EC50 was above 200 µM and the 50% inhibitory concentration (IC50) came to 5.13 µM. `Cc1c(/C=N/NC(=O)c2ccccc2)c(=O)n(-c2ccccc2)n1C`: the EC50 was above 200 µM and the IC50 was above 200 µM. Regarding `N#CN=C(N)N`, the outcome was inactive. Consider `COC(=O)c1ccc([As](=O)(O)O)cc1C(C)=O`, for which the 50% effective concentration (EC50) is above 200 µM and the IC50 amounted to 148 µM. As to `CCOC(=O)C(C(C)=O)C(c1ccc(N(C)C)cc1)C(C(C)=O)C(=O)OCC` (centres undefined), the EC50 is above 200 µM and the half-inhibitory concentration (IC50) is above 200 µM. Regarding `N#Cc1c(-c2ccc(Cl)c(Cl)c2)c(-c2ccc(Cl)c(Cl)c2)nn(CCO)c1=O`, the EC50 was above 41.7 µM and the half-maximal inhibitory concentration (IC50) was 0.759 µM. Turning to `COC(=O)[C@H]1[C@H]2C[C@@H]3c4[nH]c5cccc(OC)c5c4CCN3C[C@H]2CC[C@H]1O`, the EC50 is above 200 µM and the concentration for half-maximal inhibition (IC50) was above 200 µM.

For orientation: EC50 means the concentration giving half of the maximal effect. The term IC50 denotes the concentration needed to halve the response being measured. High values mean weaker potency in that assay, low ones greater potency in that assay.
